Several values for one entry are separate records, joined by “and”; a condition that tells them apart may be missing. Identical values can stand only once.
Assays:
[1] = test system: subjects with diabetic or idiopathic gastroparesis; test: DIGEST I: responder analysis of GRS Summary Scores;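 further: weekly responder means a clinically relevant symptom change versus baseline, and weeks with missing data (dropouts) count as non-response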
Description: A weekly responder was defined as a subject who experienced a clinically relevant change in symptoms from baseline.
Given these observations, a responder is any subject being a weekly responder for at least 6 of 12 weeks and at least 3 of the last 4 weeks of treatment. Subjects with missing data in the week (drop out) were defined as a non-responder for that week.

[2] = test system: subjects with diabetic or idiopathic gastroparesis; test: DIGEST I: weekly GRS total score; conditions: ITT
Description: Gastroparesis Rating Score is a patient reported outcome that measures 9 symptoms: (1) nausea, (2) bloating, (3) postprandial fullness, (4) early satiety, (5) vomiting, (6) abdominal pain, (7) epigastric burning, (8) gastric reflux with or without burning, and (9) bowel movements, using up to 27 questions assessing the severity of the symptom, the daily frequency of the symptom, the length of time on a daily basis of the symptom, and whether the symptom continues over a 24-hour period.
The total duration of study participation for each completed subject was approximately 19 weeks including: • Screening period: up to 5 weeks, including one week baseline period; • Treatment period: 12 weeks; and • Follow-up: 2 weeks.
During the treatment period, subjects were instructed to take 1 capsule of study drug once daily approximately 30 minutes prior to eating at approximately the same time each morning and to record the time of drug ingestion in the electronic diary. Subjects also completed the GCS1-24H and GRS on a daily basis using an electronic diary. […] Subjects returned to the study center for safety and efficacy assessments as detailed in the Schedule of Study Procedures.
A daily proprietary patient reported outcome (PRO) tool was used to assess GP symptoms, the Gastroparesis Rating Scale (GRS), developed according to the current FDA PRO guidance. The GRS covers the following cardinal symptom domains: (1) nausea, (2) vomiting, (3) postprandial fullness/early satiety, (4) bloating, (5) upper abdominal pain, (6) gastric reflux/burning, and (7) bowel movements. The GRS symptom domains may be also categorized or grouped into Factor 1 (fullness, early satiety, bloating, upper abdominal pain, and epigastric burning) and Factor 2 (nausea and vomiting).
The primary endpoint evaluation time point was Week 4 with sensitivity analyses conducted at Weeks 8 and 12.
LS Mean Differences in each subgroup are calculated based on repeated measures mixed effect model with change from baseline in weekly GRS total score as dependent variable, treatment, gastroparesis type (diabetic vs. idiopathic), GE test time (historical vs. prospective), baseline GRS total score, time, subgroup variable, interaction effect of treatment by time, baseline GRS total score by time, treatment by subgroup variable, time by subgroup variable and treatment by time by subgroup variable as fixed effect, a random effect of subject within site, using an unstructured covariance structure.

[3] = 5 mg/day, responders for at least 6 of 12 weeks, ITT
[4] = 15 mg/day, at least 6 of 12 weeks and at least 3 weeks of Weeks 9-12, ITT
[5] = 15 mg/day, diabetic gastroparesis population
[6] = 15 mg/day, idiopathic gastroparesis population
[7] = 15 mg/day, responders for at least 6 of 12 weeks, ITT
[8] = 30 mg/day, at least 6 of 12 weeks and at least 3 weeks of Weeks 9-12, ITT
[9] = 30 mg/day, diabetic gastroparesis population
[10] = 30 mg/day, idiopathic gastroparesis population
[11] = 30 mg/day, responders for at least 6 of 12 weeks, ITT

Question: What does the source list for “1-isopropyl-2-oxo-1,2-dihydroquinoline-3-carboxylic acid {(1S,3R,5R)-8-[(R)-2-hydroxy-3-(methanesulfonyl-methyl-amino)propyl]-8-azabicyclo[3.2.1]oct-3-yl}amide [Velusetrag]”?
Answer: LS Proportion of positive responders; Summary Score 1 [1, 3]: 0.54; LS Proportion of positive responders; Summary Score 2 [1, 3]: 0.57; Responders, %; Summary Score 1 [1, 3]: (55.9) %; Responders, %; Summary Score 2 [1, 3]: (57.6) %; Responders, n; Summary Score 1 [1, 3]: 33; Responders, n; Summary Score 2 [1, 3]: 34; LS Proportion of positive responders; Summary Score 1 [1, 4]: 0.45; LS Proportion of positive responders; Summary Score 2 [1, 4]: 0.43; Responders, %; Summary Score 1 [1, 4]: (45.3) %; Responders, %; Summary Score 2 [1, 4]: (43.4) %; Responders, n; Summary Score 1 [1, 4]: 24; Responders, n; Summary Score 2 [1, 4]: 23; LS Proportion of positive responders; Summary Score 1 [1, 5]: 0.44; LS Proportion of positive responders; Summary Score 2 [1, 5]: 0.31; Responders, %; Summary Score 1 [1, 5]: (44.8) %; Responders, %; Summary Score 2 [1, 5]: (34.5) %; Responders, n; Summary Score 1 [1, 5]: 13; Responders, n; Summary Score 2 [1, 5]: 10; LS Proportion of positive responders; Summary Score 1 [1, 6]: 0.48; LS Proportion of positive responders; Summary Score 2 [1, 6]: 0.58; Responders, %; Summary Score 1 [1, 6]: (45.8) %; Responders, %; Summary Score 2 [1, 6]: (54.2) %; Responders, n; Summary Score 1 [1, 6]: 11; Responders, n; Summary Score 2 [1, 6]: 13; LS Proportion of positive responders; Summary Score 1 [1, 7]: 0.49; LS Proportion of positive responders; Summary Score 2 [1, 7]: 0.51; Responders, %; Summary Score 1 [1, 7]: (49.1) %; Responders, %; Summary Score 2 [1, 7]: (50.9) %; Responders, n; Summary Score 1 [1, 7]: 26; Responders, n; Summary Score 2 [1, 7]: 27; LS Proportion of positive responders; Summary Score 1 [1, 8]: 0.44; LS Proportion of positive responders; Summary Score 2 [1, 8]: 0.45; Responders, %; Summary Score 1 [1, 8]: (47.4) %; Responders, %; Summary Score 2 [1, 8]: (49.1) %; Responders, n; Summary Score 1 [1, 8]: 27; Responders, n; Summary Score 2 [1, 8]: 28; LS Proportion of positive responders; Summary Score 1 [1, 9]: 0.48; LS Proportion of positive responders; Summary Score 2 [1, 9]: 0.45; Responders, %; Summary Score 1 [1, 9]: (50.0) %; Responders, %; Summary Score 2 [1, 9]: (50.0) %; Responders, n; Summary Score 1 [1, 9]: 13; Responders, n; Summary Score 2 [1, 9]: 13; LS Proportion of positive responders; Summary Score 1 [1, 10]: 0.41; LS Proportion of positive responders; Summary Score 2 [1, 10]: 0.45; Responders, %; Summary Score 1 [1, 10]: (45.2) %; Responders, %; Summary Score 2 [1, 10]: (48.4) %; Responders, n; Summary Score 1 [1, 10]: 14; Responders, n; Summary Score 2 [1, 10]: 15; LS Proportion of positive responders; Summary Score 1 [1, 11]: 0.44; LS Proportion of positive responders; Summary Score 2 [1, 11]: 0.47; Responders, %; Summary Score 1 [1, 11]: (47.4) %; Responders, %; Summary Score 2 [1, 11]: (50.9) %; Responders, n; Summary Score 1 [1, 11]: 27; Responders, n; Summary Score 2 [1, 11]: 29; LS Mean Difference vs placebo, weekly GRS total score ([2]; 5 mg/day, Week 4): −0.4 points and −0.4 (0.16) points; LS Mean change from baseline, weekly GRS total score ([2]; 5 mg/day, Week 4): −1.3 (0.11) points; LS Mean Difference vs placebo, weekly GRS total score ([2]; 5 mg/day, Week 8): −0.3 (0.18) points; LS Mean change from baseline, weekly GRS total score ([2]; 5 mg/day, Week 8): −1.4 (0.13) points; LS Mean Difference vs placebo, weekly GRS total score ([2]; 5 mg/day, Week 12): −0.4 (0.18) points; LS Mean change from baseline, weekly GRS total score ([2]; 5 mg/day, Week 12): −1.5 (0.13) points; LS Mean Difference vs placebo, weekly GRS total score ([2]; 15 mg/day, Week 4): −0.2 (0.17) points; LS Mean change from baseline, weekly GRS total score ([2]; 15 mg/day, Week 4): −1.1 (0.12) points; LS Mean Difference vs placebo, weekly GRS total score ([2]; 15 mg/day, Week 8): −0.1 (0.19) points; LS Mean change from baseline, weekly GRS total score ([2]; 15 mg/day, Week 8): −1.2 (0.14) points; LS Mean Difference vs placebo, weekly GRS total score ([2]; 15 mg/day, Week 12): −0.2 (0.19) points; LS Mean change from baseline, weekly GRS total score ([2]; 15 mg/day, Week 12): −1.3 (0.14) points; LS Mean Difference vs placebo, weekly GRS total score ([2]; 30 mg/day, Week 4): 0.0 (0.17) points; LS Mean change from baseline, weekly GRS total score ([2]; 30 mg/day, Week 4): −0.8 (0.12) points; LS Mean Difference vs placebo, weekly GRS total score ([2]; 30 mg/day, Week 8): −0.1 (0.19) points; LS Mean change from baseline, weekly GRS total score ([2]; 30 mg/day, Week 8): −1.1 (0.13) points; LS Mean Difference vs placebo, weekly GRS total score ([2]; 30 mg/day, Week 12): −0.1 (0.19) points; LS Mean change from baseline, weekly GRS total score ([2]; 30 mg/day, Week 12): −1.3 (0.13) points

— US11642339B2 (THERAVANCE BIOPHARMA R&D IP, LLC, priority 2017, dated 2023)
